Data reported in PMC10734773, “Synthesis of benzoyl hydrazones having 4-hydroxy-3,5-dimethoxy phenyl ring, their biological activities, and molecular modeling studies on enzyme inhibition activities” (Turkish Journal of Chemistry, 2021).

Key:
[1] = molecular target: T1, BChE (butyrylcholinesterase from horse serum) (Equus caballus, UniProt P81908); assay: Ellman assay, […] nm; format: biochemical; details: butyrylthiocholine chloride, DTNB, pH 8.0, room conditions, 15 min preincubation
T1 construct: native enzyme preparation from horse serum

[2] = molecular target: T2, Tyrosinase (tyrosinase mushroom); assay: spectrophotometric dopachrome assay, […] nm; format: biochemical, Agaricus bisporus; details: L-DOPA, pH 6.8, 37 °C, 10 min preincubation
T2 construct: gene PPO3; native mushroom tyrosinase preparation, isoenzyme mixture not resolved; only 'mushroom' given

[3] = molecular target: AChE (acetylcholinesterase from eel) (Electrophorus electricus, UniProt O42275); details: acetylthiocholine-type substrate (AcI [sic]), DTNB, pH 8.0, 25 °C, 15 min preincubation
Chain of AChE (acetylcholinesterase from eel) (O42275 24-633): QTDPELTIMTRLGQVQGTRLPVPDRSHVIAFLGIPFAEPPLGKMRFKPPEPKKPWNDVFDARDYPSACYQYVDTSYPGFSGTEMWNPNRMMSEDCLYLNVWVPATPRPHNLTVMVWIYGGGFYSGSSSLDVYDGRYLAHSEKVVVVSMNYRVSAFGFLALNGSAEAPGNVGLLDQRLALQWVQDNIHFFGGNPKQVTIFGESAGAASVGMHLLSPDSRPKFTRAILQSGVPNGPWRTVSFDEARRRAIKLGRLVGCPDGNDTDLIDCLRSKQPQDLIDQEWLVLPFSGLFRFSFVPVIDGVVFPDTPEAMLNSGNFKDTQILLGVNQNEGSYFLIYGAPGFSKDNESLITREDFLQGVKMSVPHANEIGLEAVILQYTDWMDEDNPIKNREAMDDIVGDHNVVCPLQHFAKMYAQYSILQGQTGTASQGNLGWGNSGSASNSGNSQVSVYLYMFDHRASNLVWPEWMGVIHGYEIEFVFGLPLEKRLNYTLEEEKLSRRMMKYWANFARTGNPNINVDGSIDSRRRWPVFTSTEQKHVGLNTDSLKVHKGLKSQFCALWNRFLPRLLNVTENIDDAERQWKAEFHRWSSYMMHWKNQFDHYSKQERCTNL

T1 sequence (P81908 whole entry): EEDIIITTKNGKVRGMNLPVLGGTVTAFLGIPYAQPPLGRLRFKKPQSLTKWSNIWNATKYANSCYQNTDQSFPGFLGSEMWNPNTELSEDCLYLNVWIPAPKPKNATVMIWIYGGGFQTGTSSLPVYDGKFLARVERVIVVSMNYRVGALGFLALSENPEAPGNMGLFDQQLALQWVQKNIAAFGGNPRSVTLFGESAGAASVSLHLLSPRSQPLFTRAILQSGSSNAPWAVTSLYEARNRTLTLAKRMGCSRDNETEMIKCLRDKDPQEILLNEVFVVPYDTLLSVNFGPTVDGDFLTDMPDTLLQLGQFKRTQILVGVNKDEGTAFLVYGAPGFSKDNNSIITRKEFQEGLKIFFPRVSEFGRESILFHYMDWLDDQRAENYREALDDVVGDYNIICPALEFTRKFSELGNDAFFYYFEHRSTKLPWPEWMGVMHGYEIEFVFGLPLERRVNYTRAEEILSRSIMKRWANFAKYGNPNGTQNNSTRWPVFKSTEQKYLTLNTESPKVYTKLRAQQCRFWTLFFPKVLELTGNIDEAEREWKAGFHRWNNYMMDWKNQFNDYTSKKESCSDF

COc1cc(C=NNC(=O)c2ccccc2)cc(OC)c1O [7a, N′-(4-hydroxy-3,5-dimethoxybenzylidene)benzohydrazide]
Anticholinesterase Activity / BChE assay (IC50 μM/mL) [1]: 122.04 ± 0.87 μM/mL
Tyrosinase activity (IC50 mM/mL) [2]: 88.73 ± 0.26 mM/mL
Anticholinesterase Activity / AChE assay (IC50 μM/mL) (IC50 μM/mL) [3]: 101.04 ± 0.49 μM/mL

COc1cc(C=NNC(=O)c2ccc(Br)cc2)cc(OC)c1O [7b, 4-bromo-N′-(4-hydroxy-3,5-dimethoxybenzylidene)benzohydrazide]
Anticholinesterase Activity / BChE assay (IC50 μM/mL) [1]: 116.82 ± 0.66 μM/mL
Tyrosinase activity (IC50 mM/mL) [2]: 82.08 ± 1.09 mM/mL
Anticholinesterase Activity / AChE assay (IC50 μM/mL) (IC50 μM/mL) [3]: 93.00 ± 1.11 μM/mL

COc1cc(C=NNC(=O)c2ccc(Cl)cc2)cc(OC)c1O [7c, 4-chloro-N′-(4-hydroxy-3,5-dimethoxybenzylidene)benzohydrazide]
Anticholinesterase Activity / BChE assay (IC50 μM/mL) [1]: 102.87 ± 0.48 μM/mL
Tyrosinase activity (IC50 mM/mL) [2]: 70.91 ± 0.24 mM/mL
Anticholinesterase Activity / AChE assay (IC50 μM/mL) (IC50 μM/mL) [3]: 82.14 ± 0.56 μM/mL

COc1cc(C=NNC(=O)c2ccc(F)cc2)cc(OC)c1O [7d, 4-fluoro-N′-(4-hydroxy-3,5-dimethoxybenzylidene)benzohydrazide]
Anticholinesterase Activity / BChE assay (IC50 μM/mL) [1]: 109.44 ± 0.09 μM/mL
Tyrosinase activity (IC50 mM/mL) [2]: 64.38 ± 0.99 mM/mL
Anticholinesterase Activity / AChE assay (IC50 μM/mL) (IC50 μM/mL) [3]: 88.37 ± 0.11 μM/mL

COc1ccc(C(=O)NN=Cc2cc(OC)c(O)c(OC)c2)cc1 [7e, N′-(4-hydroxy-3,5-dimethoxybenzylidene)-4-methoxybenzohydrazide]
Anticholinesterase Activity / BChE assay (IC50 μM/mL) [1]: 96.33 ± 0.61 μM/mL
Tyrosinase activity (IC50 mM/mL) [2]: 10.15 ± 0.04 mM/mL
Anticholinesterase Activity / AChE assay (IC50 μM/mL) (IC50 μM/mL) [3]: 75.01 ± 0.94 μM/mL

COc1cc(C=NNC(=O)c2ccc([N+](=O)[O-])cc2)cc(OC)c1O [7f, N′-(4-hydroxy-3,5-dimethoxybenzylidene)-4-nitrobenzohydrazide]
Anticholinesterase Activity / BChE assay (IC50 μM/mL) [1]: 52.39 ± 0.49 μM/mL
Tyrosinase activity (IC50 mM/mL) [2]: 18.22 ± 0.35 mM/mL
Anticholinesterase Activity / AChE assay (IC50 μM/mL) (IC50 μM/mL) [3]: 40.07 ± 0.25 μM/mL

COc1cc(C=NNC(=O)c2ccccc2C(F)(F)F)cc(OC)c1O [7g, N′-(4-hydroxy-3,5-dimethoxybenzylidene)-2-(trifluoromethyl)benzohydrazide]
Anticholinesterase Activity / BChE assay (IC50 μM/mL) [1]: 83.08 ± 0.34 μM/mL
Tyrosinase activity (IC50 mM/mL) [2]: 61.07 ± 0.55 mM/mL
Anticholinesterase Activity / AChE assay (IC50 μM/mL) (IC50 μM/mL) [3]: 70.13 ± 0.89 μM/mL

COc1cc(C=NNC(=O)c2cccc(C(F)(F)F)c2)cc(OC)c1O [7h, N′-(4-hydroxy-3,5-dimethoxybenzylidene)-3-(trifluoromethyl)benzohydrazide]
Anticholinesterase Activity / BChE assay (IC50 μM/mL) [1]: 88.70 ± 0.77 μM/mL
Tyrosinase activity (IC50 mM/mL) [2]: 56.88 ± 0.37 mM/mL
Anticholinesterase Activity / AChE assay (IC50 μM/mL) (IC50 μM/mL) [3]: 73.75 ± 0.34 μM/mL

COc1cc(C=NNC(=O)c2ccc(C(F)(F)F)cc2)cc(OC)c1O [7i, N′-(4-hydroxy-3,5-dimethoxybenzylidene)-4-(trifluoromethyl)benzohydrazide]
Anticholinesterase Activity / BChE assay (IC50 μM/mL) [1]: 64.09 ± 0.30 μM/mL
Tyrosinase activity (IC50 mM/mL) [2]: 49.73 ± 0.12 mM/mL
Anticholinesterase Activity / AChE assay (IC50 μM/mL) (IC50 μM/mL) [3]: 51.08 ± 0.41 μM/mL

COc1cc(C=NNC(=O)c2cc(C(F)(F)F)cc(C(F)(F)F)c2)cc(OC)c1O [7j, N′-(4-hydroxy-3,5-dimethoxybenzylidene)-3,5-bis-(trifluoromethyl)benzohydrazide]
Anticholinesterase Activity / BChE assay (IC50 μM/mL) [1]: 57.30 ± 0.87 μM/mL
Tyrosinase activity (IC50 mM/mL) [2]: 40.08 ± 0.86 mM/mL
Anticholinesterase Activity / AChE assay (IC50 μM/mL) (IC50 μM/mL) [3]: 44.83 ± 0.12 μM/mL

COc1cc(C=NNC(=O)c2ccccc2OC(F)(F)F)cc(OC)c1O [7k, N′-(4-hydroxy-3,5-dimethoxybenzylidene)-2-(trifluoromethoxy)benzohydrazide]
Anticholinesterase Activity / BChE assay (IC50 μM/mL) [1]: 69.18 ± 0.98 μM/mL
Tyrosinase activity (IC50 mM/mL) [2]: 29.78 ± 0.43 mM/mL
Anticholinesterase Activity / AChE assay (IC50 μM/mL) (IC50 μM/mL) [3]: 59.31 ± 0.77 μM/mL

COc1cc(C=NNC(=O)c2cccc(OC(F)(F)F)c2)cc(OC)c1O [7l, N′-(4-hydroxy-3,5-dimethoxybenzylidene)-3-(trifluoromethoxy)benzohydrazide]
Anticholinesterase Activity / BChE assay (IC50 μM/mL) [1]: 80.62 ± 0.36 μM/mL
Tyrosinase activity (IC50 mM/mL) [2]: 24.30 ± 0.78 mM/mL
Anticholinesterase Activity / AChE assay (IC50 μM/mL) (IC50 μM/mL) [3]: 68.09 ± 0.02 μM/mL

COc1cc(C=NNC(=O)c2ccc(OC(F)(F)F)cc2)cc(OC)c1O [7m, N′-(4-hydroxy-3,5-dimethoxybenzylidene)-4-(trifluoromethoxy)benzohydrazide]
Anticholinesterase Activity / BChE assay (IC50 μM/mL) [1]: 77.26 ± 0.42 μM/mL
Tyrosinase activity (IC50 mM/mL) [2]: 36.62 ± 0.56 mM/mL
Anticholinesterase Activity / AChE assay (IC50 μM/mL) (IC50 μM/mL) [3]: 62.04 ± 0.39 μM/mL
